# What was measured:
# Assay in all cases: relative viability (nuclei count vs DMSO), 5 days (fraction); higher = more cells survive
# Shikonin + Alpelisib = compound: CC(C)=CC[C@@H](O)C1=CC(=O)c2c(O)ccc(O)c2C1=O [Shikonin] + Cc1nc(NC(=O)N2CCC[C@H]2C(N)=O)sc1-c1ccnc(C(C)(C)C(F)(F)F)c1 [Alpelisib] (partner 2 µM)
# Summary of the method: (§1)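 Lung cancer cell lines in 1536-well plates got either a single drug or a fixed anchor-drug dose together with five library-drug doses (not always all listed) in √10 steps, by pin tool, on the day after seeding. Nuclei were counted after 5 days, and relative viability is the treated-to-vehicle ratio of nuclei counts. Values are medians of duplicate plates.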
# [1] = compound: CC(C)N(CCCNC(=O)Nc1ccc(C(C)(C)C)cc1)C[C@H]1O[C@@H](n2ccc3c(N)ncnc32)[C@H](O)[C@@H]1O + CC(=O)c1c(C)c2cnc(Nc3ccc(N4CCNCC4)cn3)nc2n(C2CCCC2)c1=O [Palbociclib] (partner 0.5 µM)
# Summary of the method: as §1
# [2] = compound: CC(C)N(CCCNC(=O)Nc1ccc(C(C)(C)C)cc1)C[C@H]1O[C@@H](n2ccc3c(N)ncnc32)[C@H](O)[C@@H]1O + CC1(C)CCC(c2ccc(Cl)cc2)=C(CN2CCN(c3ccc(C(=O)NS(=O)(=O)c4ccc(N[C@H](CCN5CCOCC5)CSc5ccccc5)c(S(=O)(=O)C(F)(F)F)c4)cc3)CC2)C1 [Navitoclax] (partner 0.5 µM)
# Summary of the method: as §1
# [3] = compound: CC(C)N(CCCNC(=O)Nc1ccc(C(C)(C)C)cc1)C[C@H]1O[C@@H](n2ccc3c(N)ncnc32)[C@H](O)[C@@H]1O + C[C@]1(O)C[C@@H](c2nc(-c3ccc4ccc(-c5ccccc5)nc4c3)c3c(N)nccn32)C1 [Linsitinib] (partner 1 µM)
# Summary of the method: as §1
cell line,measurement,setting,value
UMC-11,relative viability,Shikonin + Alpelisib; first compound 0.01 µM,0.875
same,relative viability,Shikonin + Alpelisib; first compound 0.1 µM,1.08
same,relative viability,Shikonin + Alpelisib; first compound 0.3162 µM,0.996
same,relative viability,Shikonin + Alpelisib; first compound 1 µM,1.18
same,relative viability,[1]; first compound 0.08 µM,0.294
same,relative viability,[1]; first compound 0.253 µM,0.316
same,relative viability,[1]; first compound 0.8 µM,0.304
same,relative viability,[1]; first compound 2.53 µM,0.323
same,relative viability,[1]; first compound 8 µM,0.28
same,relative viability,[2]; first compound 0.08 µM,0.296
same,relative viability,[2]; first compound 0.253 µM,0.329
same,relative viability,[2]; first compound 0.8 µM,0.319
same,relative viability,[2]; first compound 2.53 µM,0.302
same,relative viability,[2]; first compound 8 µM,0.294
same,relative viability,[3]; first compound 0.08 µM,0.953
same,relative viability,[3]; first compound 0.253 µM,0.96
same,relative viability,[3]; first compound 0.8 µM,1.07
same,relative viability,[3]; first compound 2.53 µM,1.02
same,relative viability,[3]; first compound 8 µM,0.889

# Reference: the supplement of paper PMC10307832
